Counter-ions that a name gives are not always drawn. Values belong to the molecule of their own block, whether it stands above or below them.
Columns and labels:
Parameters in all cases: scale not given: the % may be the effect or the level left
[1] = target: T1, Multidrug resistance-associated protein 1 (MRP1) (Homo sapiens, UniProt P33527); experiment: TP_TRANSPORTER: inhibition of DNP-SG uptake (DNP-SG: 0.01 uM, Calcein-AM: 10 uM) in membrane vesicles from GLC4/ADR cells; type: functional, cell membranes, GLC-4/ADR, Membrane vesicle; conditions: probe DNP-SG, read-out: Activity
[2] = target: T1, Multidrug resistance-associated protein 1 (MRP1); experiment: TP_TRANSPORTER: inhibition of DNP-SG uptake (DNP-SG: 0.01 uM, Calcein: 500 uM) in membrane vesicles from GLC4/ADR cells; type: functional, cell membranes, GLC-4/ADR, Membrane vesicle; conditions: probe DNP-SG, read-out: Activity
[3] = target: T1, Multidrug resistance-associated protein 1 (MRP1); experiment: TP_TRANSPORTER: inhibition of DNP-SG uptake (DNP-SG: 0.01 uM, TLC: 10 uM) in membrane vesicles from GLC4/ADR cells; type: functional, cell membranes, GLC-4/ADR, Membrane vesicle; conditions: probe DNP-SG, read-out: Activity
[4] = target: T1, Multidrug resistance-associated protein 1 (MRP1); experiment: TP_TRANSPORTER: inhibition of DNP-SG uptake (DNP-SG: 0.01 uM, Idarbicin: 10 uM) in membrane vesicles from GLC4/ADR cells; type: functional, cell membranes, GLC-4/ADR, Membrane vesicle; conditions: probe DNP-SG, read-out: Activity
[5] = target: T2, Multidrug resistance-associated protein 1 (Homo sapiens, UniProt P33527); experiment: TP_TRANSPORTER: inhibition of DNP-SG uptake (DNP-SG: 0.01 uM, ICG: 10 uM) in membrane vesicles from GLC4/ADR cells; type: functional, cell membranes, Membrane vesicle; conditions: glc-4/adr
[6] = target: T1, Multidrug resistance-associated protein 1 (MRP1); experiment: TP_TRANSPORTER: inhibition of DNP-SG uptake (DNP-SG: 0.01 uM, VP-16: 10 uM) in membrane vesicles from GLC4/ADR cells; type: functional, cell membranes, GLC-4/ADR, Membrane vesicle; conditions: probe DNP-SG, read-out: Activity
[7] = target: T1, Multidrug resistance-associated protein 1 (MRP1); experiment: TP_TRANSPORTER: inhibition of DNP-SG uptake (DNP-SG: 0.01 uM, MTX: 10 uM) in membrane vesicles from GLC4/ADR cells; type: functional, cell membranes, GLC-4/ADR, Membrane vesicle; conditions: probe DNP-SG, read-out: Activity
[8] = target: T2, Multidrug resistance-associated protein 1; experiment: TP_TRANSPORTER: inhibition of DNP-SG uptake (DNP-SG: 0.01 uM, Taxol: 10 uM) in membrane vesicles from GLC4/ADR cells; type: functional, cell membranes, Membrane vesicle; conditions: glc-4/adr
[9] = target: T1, Multidrug resistance-associated protein 1 (MRP1); experiment: TP_TRANSPORTER: inhibition of DNP-SG uptake (DNP-SG: 0.01 uM, TCAS: 10 uM) in membrane vesicles from GLC4/ADR cells; type: functional, cell membranes, GLC-4/ADR, Membrane vesicle; conditions: probe DNP-SG, read-out: Activity
[10] = target: T2, Multidrug resistance-associated protein 1; experiment: TP_TRANSPORTER: inhibition of DNP-SG uptake (DNP-SG: 0.01 uM, TLCAS: 10 uM) in membrane vesicles from GLC4/ADR cells; type: functional, cell membranes, Membrane vesicle; conditions: glc-4/adr

T1 sequence (P33527 whole entry): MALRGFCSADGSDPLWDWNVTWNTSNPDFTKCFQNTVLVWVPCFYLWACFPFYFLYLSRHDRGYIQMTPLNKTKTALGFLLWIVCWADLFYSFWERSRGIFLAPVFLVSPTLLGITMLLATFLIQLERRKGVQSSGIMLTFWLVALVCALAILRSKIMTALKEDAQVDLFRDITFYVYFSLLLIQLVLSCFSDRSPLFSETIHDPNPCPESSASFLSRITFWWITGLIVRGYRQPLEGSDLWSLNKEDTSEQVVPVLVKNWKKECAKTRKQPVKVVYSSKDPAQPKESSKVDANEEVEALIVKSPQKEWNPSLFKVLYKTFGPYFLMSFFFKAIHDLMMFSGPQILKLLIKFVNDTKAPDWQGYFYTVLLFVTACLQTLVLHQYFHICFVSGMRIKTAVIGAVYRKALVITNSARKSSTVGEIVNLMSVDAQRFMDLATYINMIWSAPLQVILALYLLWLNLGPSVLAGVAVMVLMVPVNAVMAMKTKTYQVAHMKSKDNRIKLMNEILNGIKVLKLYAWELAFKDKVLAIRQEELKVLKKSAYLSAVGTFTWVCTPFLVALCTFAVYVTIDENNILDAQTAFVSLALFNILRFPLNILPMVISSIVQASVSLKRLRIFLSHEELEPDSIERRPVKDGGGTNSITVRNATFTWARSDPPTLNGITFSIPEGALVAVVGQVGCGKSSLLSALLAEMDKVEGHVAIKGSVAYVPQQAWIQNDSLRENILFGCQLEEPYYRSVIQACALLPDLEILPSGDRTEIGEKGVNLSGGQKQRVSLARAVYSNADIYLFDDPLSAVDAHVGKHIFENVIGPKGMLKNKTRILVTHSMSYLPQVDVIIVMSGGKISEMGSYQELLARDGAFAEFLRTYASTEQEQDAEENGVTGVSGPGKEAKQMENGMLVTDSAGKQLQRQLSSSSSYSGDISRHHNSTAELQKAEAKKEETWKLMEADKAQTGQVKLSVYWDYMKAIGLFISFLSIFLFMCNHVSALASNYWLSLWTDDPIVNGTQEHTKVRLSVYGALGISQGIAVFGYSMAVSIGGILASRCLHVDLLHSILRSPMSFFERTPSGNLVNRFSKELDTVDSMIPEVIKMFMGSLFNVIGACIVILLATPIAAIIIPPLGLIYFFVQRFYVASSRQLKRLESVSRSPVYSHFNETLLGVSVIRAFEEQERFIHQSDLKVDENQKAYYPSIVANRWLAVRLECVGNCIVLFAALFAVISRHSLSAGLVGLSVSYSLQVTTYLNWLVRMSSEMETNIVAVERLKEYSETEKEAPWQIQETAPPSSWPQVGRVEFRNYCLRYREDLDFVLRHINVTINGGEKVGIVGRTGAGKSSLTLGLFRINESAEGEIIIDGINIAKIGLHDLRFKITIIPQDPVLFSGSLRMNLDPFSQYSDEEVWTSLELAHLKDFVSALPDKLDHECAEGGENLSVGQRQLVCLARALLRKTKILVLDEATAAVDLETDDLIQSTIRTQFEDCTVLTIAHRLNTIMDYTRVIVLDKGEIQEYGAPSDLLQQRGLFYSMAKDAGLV
T2 sequence (P33527 whole entry): as above

activity at 10 µM [1]: 44%
SMILES: CC(=O)OCOC(=O)CN(CC(=O)OCOC(C)=O)Cc1c(OC(C)=O)ccc2c1Oc1c(ccc(OC(C)=O)c1CN(CC(=O)OCOC(C)=O)CC(=O)OCOC(C)=O)C21OC(=O)c2ccccc21

activity at 500 µM [2]: 40%
SMILES: O=C(O)CN(CC(=O)O)Cc1cc2c(cc1O)Oc1cc(O)c(CN(CC(=O)O)CC(=O)O)cc1C21OC(=O)c2ccccc21 [OFTASCEINE]

activity at 10 µM [3]: 56%
SMILES: C[C@H](CCC(=O)NCCS(=O)(=O)O)[C@H]1CC[C@H]2[C@@H]3CC[C@@H]4C[C@H](O)CC[C@]4(C)[C@H]3CC[C@]12C [TAUROLITHOCHOLIC ACID]

activity at 10 µM [4]: 52%
SMILES: CC(=O)[C@]1(O)Cc2c(O)c3c(c(O)c2[C@@H](O[C@H]2C[C@H](N)[C@H](O)[C@H](C)O2)C1)C(=O)c1ccccc1C3=O [IDARUBICIN]

Activity [5]: 34%
SMILES: CC1(C)C(/C=C/C=C/C=C/C=C2/N(CCCCS(=O)(=O)[O-])c3ccc4ccccc4c3C2(C)C)=[N+](CCCCS(=O)(=O)[O-])c2ccc3ccccc3c21.[Na+] [INDOCYANINE GREEN]

activity at 10 µM [6]: 50%
SMILES: COc1cc([C@@H]2c3cc4c(cc3[C@@H](O[C@@H]3O[C@@H]5CO[C@@H](C)O[C@H]5[C@H](O)[C@H]3O)[C@H]3COC(=O)[C@H]23)OCO4)cc(OC)c1O [ETOPOSIDE]

activity at 10 µM [7]: 82%
SMILES: CN(Cc1cnc2nc(N)nc(N)c2n1)c1ccc(C(=O)N[C@@H](CCC(=O)O)C(=O)O)cc1 [METHOTREXATE]

Activity [8]: 66%
SMILES: CC(=O)O[C@H]1C(=O)[C@@]2(C)[C@H]([C@H](OC(=O)c3ccccc3)[C@]3(O)C[C@H](OC(=O)[C@H](O)[C@@H](NC(=O)c4ccccc4)c4ccccc4)C(C)=C1C3(C)C)[C@]1(OC(C)=O)CO[C@@H]1C[C@@H]2O [PACLITAXEL]

SMILES: C[C@H](CCC(=O)NCCS(=O)(=O)O)C1CC[C@H]2[C@@H]3[C@H](O)C[C@@H]4C[C@H](OS(=O)(=O)O)CC[C@]4(C)[C@H]3C[C@H](O)[C@]12C (stereo not given in full) [TAUROCHOLATE SULFATE]
activity at 10 µM [9]: 76%

SMILES: C[C@H](CCC(=O)NCCS(=O)(=O)O)C1CC[C@H]2[C@@H]3CC[C@@H]4C[C@H](OS(=O)(=O)O)CC[C@]4(C)[C@H]3CC[C@]12C (stereo not given in full)
Activity [10]: 11%
